In patent US10479780B2, “Aminopyrazole derivatives” (Chugai Seiyaku Kabushiki Kaisha, priority 2015, dated 2019):
Where two headings read alike, the source gives them in different places.

Legend:
Type in all cases: biochemical
human Src enzyme = biological target: T1, human Src enzyme (Homo sapiens, UniProt P12931); experiment: Src enzyme inhibitory activity (time-resolved fluorometry, biotinylated peptide phosphorylation); details: read-out: SRC_IC50
T1 construct: purchased Carna Biosciences, Inc. 08-173
How it was run: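 Compounds were tested for blocking tyrosine phosphorylation of a biotinylated peptide substrate by recombinant human Src. Phosphorylated product was quantified by time-resolved fluorometry using europium cryptate and XL665 conjugates, and IC50 was calculated against the compound-free control.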

human Lck enzyme = biological target: T2, human Lck enzyme (Homo sapiens, UniProt P06239); experiment: Lck enzyme inhibitory activity (time-resolved fluorometry, biotinylated peptide phosphorylation); details: read-out: LCK_IC50
T2 construct: purchased Carna Biosciences, Inc. 08-170
How it was run: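 Readout pairs a europium cryptate-labelled anti-phosphotyrosine antibody with XL665-streptavidin, measured by time-resolved fluorescence. IC50 derived from percent inhibition against untreated controls.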

human Yes1 enzyme = biological target: T3, human Yes1 enzyme (Homo sapiens, UniProt P07947); experiment: Yes1 enzyme inhibitory activity (time-resolved fluorometry, biotinylated peptide phosphorylation); details: read-out: YES_IC50
T3 construct: made in house
How it was run: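 Inhibition was expressed against a compound-free control to give IC50, using TR-FRET read-out (Eu-cryptate anti-pTyr antibody, streptavidin-XL665).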

[1] = biotinylated peptide phosphorylation

T2 sequence (P06239 whole entry): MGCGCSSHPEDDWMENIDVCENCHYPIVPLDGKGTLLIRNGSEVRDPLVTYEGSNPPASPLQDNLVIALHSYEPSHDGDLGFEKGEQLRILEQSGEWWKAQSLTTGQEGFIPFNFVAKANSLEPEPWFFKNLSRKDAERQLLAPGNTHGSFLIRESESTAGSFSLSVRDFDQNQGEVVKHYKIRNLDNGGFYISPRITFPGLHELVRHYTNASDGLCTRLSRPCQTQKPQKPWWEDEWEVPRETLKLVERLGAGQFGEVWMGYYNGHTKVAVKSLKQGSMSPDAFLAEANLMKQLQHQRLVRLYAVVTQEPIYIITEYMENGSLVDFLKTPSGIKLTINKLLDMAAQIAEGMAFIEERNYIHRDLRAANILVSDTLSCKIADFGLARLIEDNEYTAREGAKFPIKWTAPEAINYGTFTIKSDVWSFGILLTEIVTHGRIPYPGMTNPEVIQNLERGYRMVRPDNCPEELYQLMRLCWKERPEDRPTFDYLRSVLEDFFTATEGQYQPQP
T3 sequence (P07947 whole entry): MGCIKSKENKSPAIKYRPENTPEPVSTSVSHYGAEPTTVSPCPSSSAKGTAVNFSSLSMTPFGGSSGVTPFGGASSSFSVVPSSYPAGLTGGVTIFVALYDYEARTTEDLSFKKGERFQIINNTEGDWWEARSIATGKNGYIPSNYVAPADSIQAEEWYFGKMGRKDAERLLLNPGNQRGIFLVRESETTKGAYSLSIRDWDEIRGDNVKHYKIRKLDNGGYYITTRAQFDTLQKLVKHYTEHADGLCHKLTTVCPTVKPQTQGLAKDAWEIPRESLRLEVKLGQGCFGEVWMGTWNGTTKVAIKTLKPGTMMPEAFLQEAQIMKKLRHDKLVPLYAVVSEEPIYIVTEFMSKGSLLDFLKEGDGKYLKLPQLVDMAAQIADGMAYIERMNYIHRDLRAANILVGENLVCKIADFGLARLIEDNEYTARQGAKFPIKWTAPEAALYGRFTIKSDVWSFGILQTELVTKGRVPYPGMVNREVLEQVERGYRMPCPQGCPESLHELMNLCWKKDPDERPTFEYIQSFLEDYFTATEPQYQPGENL
T1 sequence (P12931 whole entry): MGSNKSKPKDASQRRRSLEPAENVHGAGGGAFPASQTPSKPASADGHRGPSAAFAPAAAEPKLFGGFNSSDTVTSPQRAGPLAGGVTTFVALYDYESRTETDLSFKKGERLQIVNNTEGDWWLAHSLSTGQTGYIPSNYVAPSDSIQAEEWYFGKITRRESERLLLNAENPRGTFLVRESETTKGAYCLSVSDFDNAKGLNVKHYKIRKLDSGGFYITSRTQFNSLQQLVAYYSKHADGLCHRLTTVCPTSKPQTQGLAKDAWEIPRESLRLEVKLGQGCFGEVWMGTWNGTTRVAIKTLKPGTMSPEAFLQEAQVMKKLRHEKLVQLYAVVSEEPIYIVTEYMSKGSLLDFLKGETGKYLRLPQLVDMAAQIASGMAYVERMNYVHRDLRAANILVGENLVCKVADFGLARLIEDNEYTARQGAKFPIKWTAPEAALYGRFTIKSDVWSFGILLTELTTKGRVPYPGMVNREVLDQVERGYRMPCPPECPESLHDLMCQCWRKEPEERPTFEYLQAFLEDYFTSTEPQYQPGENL

With `Cc1cc(Oc2c(F)cccc2F)ncc1-n1ncc(C(=O)c2cc3cc(OC(F)F)c(N4CCCS4(=O)=O)cc3[nH]2)c1N` [Example 4-25-005, [5-amino-1-[6-(2,6-difluorophenoxy)-4-methylpyridin-3-yl]pyrazol-4-yl]-[5-(difluoromethoxy)-6-(1,1-dioxo-1,2-thiazolidin-2-yl)-1H-indol-2-yl]methanone] the IC50 (human Src enzyme; [1]) was 53 nM, the IC50 (human Lck enzyme; [1]) was 11 nM and the IC50 (human Yes1 enzyme; [1]) was 3.9 nM.
`Cc1cnc(F)c(S(=O)(=O)Nc2cc3[nH]c(C(=O)c4cnn(-c5cnc(Oc6c(F)cccc6F)cc5C)c4N)cc3cc2F)c1` [Example 5-1-523, N-[2-[5-amino-1-[6-(2,6-difluorophenoxy)-4-methylpyridin-3-yl]pyrazole-4-carbonyl]-5-fluoro-1H-indol-6-yl]-2-fluoro-5-methylpyridine-3-sulfonamide] was tested, and the IC50 (human Src enzyme; [1]) was 450 nM, the IC50 (human Lck enzyme; [1]) was 200 nM and the IC50 (human Yes1 enzyme; [1]) was 6.3 nM.
In the case of `Cc1cc2cc(C(=O)c3cnn(-c4cnc(Oc5c(F)cccc5F)cc4C)c3N)[nH]c2cc1N1C(=O)CNC1=O` [Example 5-1-442, 3-[2-[5-amino-1-[6-(2,6-difluorophenoxy)-4-methylpyridin-3-yl]pyrazolo-4-carbonyl]-5-methyl-1H-indol-6-yl]imidazolidine-2,4-dione], the IC50 (human Src enzyme; [1]) is reported as 21 nM, the IC50 (human Lck enzyme; [1]) is reported as 4.9 nM and the IC50 (human Yes1 enzyme; [1]) is reported as 1.2 nM.
In the case of `Cc1cc(Oc2c(F)cccc2F)ncc1-n1ncc(C(=O)c2cc3cc(OCC(F)F)c(N4C(=O)NC5(CCN(Cc6ccccc6)C5)C4=O)cc3[nH]2)c1N` (stereo not drawn) [Example 5-1-354, 3-[2-[5-amino-1-[6-(2,6-difluorophenoxy)-4-methylpyridin-3-yl]pyrazole-4-carbonyl]-5-(2,2-difluoroethoxy)-1H-indol-6-yl]-7-benzyl-1,3,7-triazaspiro[4.4]nonane-2,4-dione], the IC50 (human Src enzyme) is reported as 13 nM, the IC50 (human Lck enzyme) is reported as 2.9 nM and the IC50 (human Yes1 enzyme) is reported as 1.4 nM.
Work on `Cc1cc(Oc2cc(F)ccc2F)cc(F)c1-n1ncc(C(=O)c2cc3cc(NS(C)(=O)=O)c(F)cc3[nH]2)c1N` [Example 4-2-101, N-[2-[5-amino-1-[4-(2,5-difluorophenoxy)-2-fluoro-6-methylphenyl]pyrazole-4-carbonyl]-6-fluoro-1H-indol-5-yl]methanesulfonamide] yielded an IC50 (human Src enzyme; [1]) of 50 nM, an IC50 (human Lck enzyme; [1]) of 2.9 nM and an IC50 (human Yes1 enzyme; [1]) of 0.74 nM.
`CCOc1cc2cc(C(=O)c3cnn(-c4ccc(Oc5ccccc5F)cc4C)c3N)[nH]c2cc1C1CCN(S(=O)(=O)C2CC2)CC1` [Example 5-1-071, [5-amino-1-[4-(2-fluorophenoxy)-2-methylphenyl]pyrazol-4-yl]-[6-(1-cyclopropylsulfonylpiperidin-4-yl)-5-ethoxy-1H-indol-2-yl]methanone] was tested, and the IC50 (human Src enzyme) was 67 nM, the IC50 (human Lck enzyme) was 61 nM and the IC50 (human Yes1 enzyme) was 28 nM.
With `COc1cc2cc(C(=O)c3cnn(-c4cnc(Oc5c(F)cccc5F)cc4C)c3N)[nH]c2cc1NS(=O)(=O)CCCF` [Example 4-19-001, N-(2-(5-amino-1-(6-(2,6-difluorophenoxy)-4-methylpyridin-3-yl)-1H-pyrazole-4-carbonyl)-5-methoxy-1H-indol-6-yl)-3-fluoropropane-1-sulfonamide] the IC50 (human Src enzyme; [1]) was 28 nM, the IC50 (human Lck enzyme; [1]) was 3.9 nM and the IC50 (human Yes1 enzyme; [1]) was 0.83 nM.
For `CC(C)N1CCC(c2cc3cc(C(=O)c4cnn(-c5ccc(Oc6ccccc6F)cc5)c4N)[nH]c3cc2F)CC1` [Example 5-1-004, [5-amino-1-[4-(2-fluorophenoxy)phenyl]pyrazol-4-yl]-[6-fluoro-5-(1-propan-2-ylpiperidin-4-yl)-1H-indol-2-yl]methanone], the IC50 (human Src enzyme) was 3.6 nM, the IC50 (human Lck enzyme) was 2.8 nM and the IC50 (human Yes1 enzyme) was 0.78 nM.
For `COc1cc(F)cc(S(=O)(=O)Nc2cc3[nH]c(C(=O)c4cnn(-c5cnc(Oc6ccccc6F)cc5C)c4N)cc3cc2C)c1` [Example 5-1-496, N-[2-[5-amino-1-[6-(2-fluorophenoxy)-4-methylpyridin-3-yl]pyrazole-4-carbonyl]-5-methyl-1H-indol-6-yl]-3-fluoro-5-methoxybenzenesulfonamide], the IC50 (human Src enzyme; [1]) was 1300 nM, the IC50 (human Lck enzyme; [1]) was 630 nM and the IC50 (human Yes1 enzyme; [1]) was 11 nM.
Compound `Cc1cc(Oc2cccc(F)c2)ncc1-n1ncc(C(=O)c2cc3cc(F)c(NS(=O)(=O)CCCF)cc3[nH]2)c1N` [Example 5-1-059, N-[2-[5-amino-1-[6-(3-fluorophenoxy)-4-methylpyridin-3-yl]pyrazole-4-carbonyl]-5-fluoro-1H-indol-6-yl]-3-fluoropropane-1-sulfonamide] has an IC50 (human Src enzyme) of 130 nM, an IC50 (human Lck enzyme) of 33 nM and an IC50 (human Yes1 enzyme) of 3.4 nM.
For `Cc1cc2cc(C(=O)c3cnn(-c4cnc(Oc5ccccc5F)cc4C)c3N)[nH]c2cc1NS(=O)(=O)c1cc(Cl)ccn1` [Example 5-1-509, N-[2-[5-amino-1-[6-(2-fluorophenoxy)-4-methylpyridin-3-yl]pyrazole-4-carbonyl]-5-methyl-1H-indol-6-yl]-4-chloropyridine-2-sulfonamide], the IC50 (human Src enzyme; [1]) was 840 nM, the IC50 (human Lck enzyme; [1]) was 130 nM and the IC50 (human Yes1 enzyme; [1]) was 3.7 nM.
`Cc1cc(Oc2cccc(Cl)c2)cc(F)c1-n1ncc(C(=O)c2cc3cc(Cl)c(NS(C)(=O)=O)cc3[nH]2)c1N` [Example 4-2-083, N-[2-[5-amino-1-[4-(3-chlorophenoxy)-2-fluoro-6-methylphenyl]pyrazole-4-carbonyl]-5-chloro-1H-indol-6-yl]methanesulfonamide] showed an IC50 (human Src enzyme; [1]) of 520 nM, an IC50 (human Lck enzyme; [1]) of 250 nM and an IC50 (human Yes1 enzyme; [1]) of 27 nM.
`Cc1cc(-n2ncc(C(=O)c3cc4cc(OC5CCN(C(C)C)CC5)c(NS(C)(=O)=O)cc4[nH]3)c2N)ccc1Oc1ccccc1F` [Example 5-1-156, N-(2-(5-amino-1-(4-(2-fluorophenoxy)-3-methylphenyl)-1H-pyrazole-4-carbonyl)-5-((1-isopropylpiperidin-4-yl)oxy)-1H-indol-6-yl)methanesulfonamide] showed an IC50 (human Src enzyme) of 1100 nM, an IC50 (human Lck enzyme) of 64 nM and an IC50 (human Yes1 enzyme) of 1.6 nM.
Work on `Cc1cc(Oc2c(F)cccc2F)ncc1-n1ncc(C(=O)c2cc3cc(OCC(F)F)c(N4C(=O)C(C)(C)NC4=S)cc3[nH]2)c1N` [Example 4-23-036, 3-{2-{5-amino-1-[6-(2,6-difluorophenoxy)-4-methylpyridin-3-yl]pyrazole-4-carbonyl}-5-(2,2-difluoroethoxy)-1H-indol-6-yl}-5,5-dimethyl-2-sulfanylideneimidazolidin-4-one] yielded an IC50 (human Src enzyme; [1]) of 31 nM, an IC50 (human Lck enzyme; [1]) of 6.4 nM and an IC50 (human Yes1 enzyme; [1]) of 1 nM.
`Cc1cc2cc(C(=O)c3cnn(-c4ccc(Oc5ccccc5F)cc4C)c3N)[nH]c2cc1N1C(=O)NC2(CCN(C3COC3)CC2)C1=O` [Example 5-1-391, 3-(2-(5-amino-1-(4-(2-fluorophenoxy)-2-methylphenyl)-1H-pyrazole-4-carbonyl)-5-methyl-1H-indol-6-yl)-8-(oxetan-3-yl)-1,3,8-triazaspiro[4.5]decane-2,4-dione] showed an IC50 (human Src enzyme) of 11 nM, an IC50 (human Lck enzyme) of 5.5 nM and an IC50 (human Yes1 enzyme) of 1.3 nM.
`Cc1cc(Oc2ccccc2F)ccc1-n1ncc(C(=O)c2cc3cc(OCC(F)F)c(N4CCC(N5CCOCC5)CC4)cc3[nH]2)c1N` [Example 4-25-028, [5-amino-1-[4-(2-fluorophenoxy)-2-methylphenyl]pyrazol-4-yl]-[5-(2,2-difluoroethoxy)-6-(4-morpholin-4-ylpiperidin-1-yl)-1H-indol-2-yl]methanone] gave an IC50 (human Src enzyme; [1]) of 13 nM, an IC50 (human Lck enzyme; [1]) of 4.9 nM and an IC50 (human Yes1 enzyme; [1]) of 0.94 nM.
`Cc1cc(Oc2c(F)cccc2F)ncc1-n1ncc(C(=O)c2cc3cc(OC(F)F)c(NS(=O)(=O)C4CCOCC4)cc3[nH]2)c1N` [Example 5-1-380, N-[2-[5-amino-1-[6-(2,6-difluorophenoxy)-4-methylpyridin-3-yl]pyrazole-4-carbonyl]-5-(difluoromethoxy)-1H-indol-6-yl]oxane-4-sulfonamide] was tested, and the IC50 (human Src enzyme) was 95 nM, the IC50 (human Lck enzyme) was 110 nM and the IC50 (human Yes1 enzyme) was 6.3 nM.
